Results as given in US20180125796A1, “TREATMENT OF MYCOBACTERIAL INFECTION” (priority 2015, published 2018).

How the values were obtained:
[1] = tested on: lysosomal expansion/storage; assay: Lysotracker fluorescence (lysosomal expansion/storage); assay type: cell-based; conditions: FIG. 6B
Method: Cells were live stained with 50 nM Lysotracker green (Molecular Probes) in PBS at room temperature for 30 min prior to washing.

[2] = tested on: total ganglioside and GM1 content; conditions: Kasperzyk et al. 2005; cited from earlier work
[3] = cited from earlier work; for neurological side effects: adult mice, Andersson et al. 2004; for CNS penetration: mouse, in vivo
[4] = tested on: GSL biosynthesis; conditions: cited from earlier work
[5] = mouse models of GSL storage diseases; cited from earlier work
[6] = tested on: GSL; assay type: cell-based
[7] = tested on: NPC phenotypes; assay type: cell-based
[8] = tested on: LE/Lys Ca^2+; assay type: cell-based
[9] = tested on: mCherry-expressing M. bovis BCG; assay type: cell-based
[10] = tested on: NPC1; assay: TDM on bone marrow-derived macrophages from NPC1 heterozygous mice; assay type: cell-based, mouse
[11] = tested on: ER/neutral Ca^2+ store; assay: Cytosolic Ca^2+ / ER Ca^2+ store content probed with ionomycin; assay type: cell-based
[12] = tested on: BCG; assay type: cell-based, M. bovis BCG
[13] = tested on: sarco-endoplasmic reticulum Ca^2+-ATPase (SERCA); conditions: Bilmen et al. 2001; cited from earlier work
[14] = tested on: M. smegmatis; assay: Clearance of M. smegmatis in wild-type mouse macrophages; assay type: cell-based, Mycobacterium smegmatis; conditions: U18666A-treated wild-type mouse macrophages; FIG. 13
[15] = tested on: M. smegmatis; assay: Clearance of M. smegmatis in RAW 246.7 cells; assay type: cell-based, Mycobacterium smegmatis; conditions: RAW 246.7 cells incubated with U18666A (1 μg/ml, 48 hours) prior to infection; relative to untreated cells; FIG. 12
[16] = tested on: M. smegmatis; assay: Clearance of M. smegmatis in primary human macrophages; assay type: cell-based, Mycobacterium smegmatis; conditions: primary human macrophages treated with U18666A; FIG. 14
[17] = tested on: GSL levels; conditions: mice; Platt 1997; cited from earlier work

Molecule: glucose monomycolate [GMM from non-pathogenic M. smegmatis]
- Lysotracker fluorescence, NPC-like lysosomal expansion/storage [1]: minimal effects

Molecule: trehalose monomycolate [TMM]
- Lysotracker fluorescence, NPC-like lysosomal expansion/storage [1]: only modest lysosomal expansion that did not reach statistical significance

Molecule: CCCCN1C[C@H](O)[C@@H](O)[C@@H](O)[C@H]1CO [NB-DGJ, N-butyldeoxygalactonojirimycin]
- total ganglioside and GM1 content in cerebrum-brainstem [2]: marked reduction
- neurological side effects [3]: not to cause neurological side effects
- CNS penetration [3]: penetrate the CNS
- inhibition of GSL biosynthesis relative to NB-DNJ [4]: comparably to NB-DNJ
- tolerability [5]: very well tolerated

Molecule: trehalose dimycolate [TDM from M. bovis]
- GSL levels [6]: GSL accumulation
- GM1 trafficking [7]: GM1 mistrafficking
- LE/Lys Ca^2+ levels [8]: reduced LE/Lys Ca^2+ levels

Molecule: OC[C@H]1O[C@@H]2O[C@H]3[C@H](O)[C@@H](O)[C@@H](O[C@H]4[C@H](O)[C@@H](O)[C@@H](O[C@H]5[C@H](O)[C@@H](O)[C@@H](O[C@H]6[C@H](O)[C@@H](O)[C@@H](O[C@H]7[C@H](O)[C@@H](O)[C@@H](O[C@H]8[C@H](O)[C@@H](O)[C@@H](O[C@H]1[C@H](O)[C@H]2O)O[C@@H]8CO)O[C@@H]7CO)O[C@@H]6CO)O[C@@H]5CO)O[C@@H]4CO)O[C@@H]3CO [3-cyclodextrin, β-cyclodextrin]
- mycobacterial clearance, agent alone [9]: neither of these molecules alone promoted mycobacterial clearance

Molecule: trehalose dimycolate [TDM]
- Lysotracker fluorescence, NPC-like lysosomal expansion/storage [1]: greatest increase in Lysotracker fluorescence
- susceptibility of Npc1+/- macrophages (50% of wild-type NPC1 protein) to inhibition by TDM, versus wild-type [10]: more susceptible to inhibition

Molecule: COc1ccc(/C=C/C(=O)C(C)(C)C(=O)/C=C/c2ccc(OC)c(OC)c2)cc1OC [FLLL31]
- effect on cytosolic Ca^2+ levels [11]: has no effect on cytosolic Ca^2+ levels
- BCG clearance [9]: had no effect

Molecule: glucose monomycolate [GMM]
- Lysotracker fluorescence, NPC-like lysosomal expansion/storage [1]: only modest lysosomal expansion that did not reach statistical significance

Molecule: COc1cc(/C=C/C(=O)CC(=O)/C=C/c2ccc(O)c(OC)c2)ccc1O [curcumin]
- effect on cytosolic Ca^2+ levels [11]: raises cytosolic [Ca^2+ ]
- mycobacterial burden [12]: significantly reduced mycobacterial burden
- Ca^2+ uptake by SERCA [13]: inhibits Ca^2+ uptake
- BCG clearance [9]: promoted BCG clearance
- bacterial clearance in cells loaded with the Ca^2+ chelator BAPTA [9]: abrogated
- level of infection (average fluorescence intensity of mCherry-expressing BCG) [9]: significantly lower level of infection

Molecule: CCN(CC)CCO[C@H]1CC[C@@]2(C)C(=CC[C@@H]3[C@@H]2CC[C@]2(C)C(=O)CC[C@@H]32)C1 [U18666A]
- clearance of M. smegmatis [14]: Impaired clearance of M. smegmatis
- ability to clear non-pathogenic M. smegmatis [15]: impaired ability to clear non-pathogenic M. smegmatis
- clearance of M. smegmatis [16]: Impaired clearance of M. smegmatis

Molecule: CCCCN1C[C@H](O)[C@@H](O)[C@H](O)[C@H]1CO [miglustat, N-butyldeoxynojirimycin]
- neurological side effects [3]: not to cause neurological side effects
- CNS penetration [3]: penetrate the CNS
- duration of treatment after which the effect on GSL levels stabilizes [17]: 10 days
- onset of decrease in GSL levels [17]: measurable decrease in GSL levels within a day of treatment
- mycobacterial clearance, agent alone [9]: neither of these molecules alone promoted mycobacterial clearance
